In patent US8802597B2, “Herbicidal pyrimidines” (E I du Pont de Nemours and Company, priority 2003, dated 2014):

Legend:
Assay type in all cases: in vivo
rice (Oryza sativa) = assay: Test B flooded paddy test; conditions: Flood, 1000 g ai/ha; scale 0 to 100
Outline: (§1)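 Visual injury scoring (0 = no effect, 100 = complete control) versus controls made 13 to 15 days after treatment in the greenhouse. Test species were grown in flooded paddy to the 2-leaf stage: rice, barnyardgrass, umbrella sedge, duck salad.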

[1] = system: barnyardgrass (Echinochloa crus-galli); assay: Test B flooded paddy test; conditions: Flood, 1000 g ai/ha; scale 0 (no effect) to 100 (complete control)
Outline: as §1

[2] = system: duck salad (Heteranthera limosa); assay: Test B flooded paddy test; conditions: Flood, 1000 g ai/ha; scale 0 to 100
Outline: as §1

[3] = system: umbrella sedge (Cyperus difformis); assay: Test B flooded paddy test; conditions: Flood, 1000 g ai/ha; scale 0 to 100
Outline: as §1

wild oat (Avena fatua) = assay: Test B postemergence; conditions: for Oat, Wild plant response rating: scale 0 to 100 (0 no effect, 100 complete control); for Plant response rating, Oat, Wild: 500 g ai/ha, scale 0 to 100
Outline: (§2)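 Pre: compound (non-phytotoxic solvent + surfactant) applied to freshly planted seeds. Post: same formulation sprayed on 2–18 cm plants, 1- to 4-leaf. Readout: visual control rating 0–100 vs controls, 13–15 d, greenhouse.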

[4] = system: blackgrass (Alopecurus myosuroides); assay: Test B postemergence; conditions: for Blackgrass plant response rating: scale 0 to 100 (0 no effect, 100 complete control); for Plant response rating, Blackgrass: 500 g ai/ha, scale 0 to 100
Outline: as §2

[5] = system: crabgrass (Digitaria sanguinalis); assay: Test B pre/postemergence
Outline: as §2

[6] = system: barnyardgrass (Echinochloa crus-galli); assay: Test B pre/postemergence
Outline: as §2

[7] = system: morningglory (Ipomoea coccinea); assay: Test B pre/postemergence
Outline: as §2

[8] = system: cocklebur (Xanthium strumarium); assay: Test B pre/postemergence
Outline: as §2

[9] = system: giant foxtail (Setaria faberii); assay: Test B pre/postemergence
Outline: as §2

[10] = system: wheat (Triticum aestivum); assay: Test B pre/postemergence
Outline: as §2

[11] = system: velvetleaf (Abutilon theophrasti); assay: Test B pre/postemergence
Outline: as §2

corn (Zea mays) = assay: Test B pre/postemergence; conditions: for Corn plant response rating: scale 0 to 100 (0 no effect, 100 complete control)
Outline: as §2

[12] = system: pigweed (Amaranthus retroflexus); assay: Test B pre/postemergence
Outline: as §2

[13] = system: lambsquarters (Chenopodium album); assay: Test B pre/postemergence
Outline: as §2

[14] = system: Surinam grass (Brachiaria decumbens); assay: Test B pre/postemergence
Outline: as §2

[15] = Postemergence, 125 g ai/ha, scale 0 to 100 (0 no effect, 100 complete control)
[16] = Postemergence, 500 g ai/ha, scale 0 to 100
[17] = Preemergence, 125 g ai/ha, scale 0 to 100 (0 no effect, 100 complete control)
[18] = Preemergence, 500 g ai/ha, scale 0 to 100 (0 no effect, 100 complete control)
[19] = Postemergence, 62 g ai/ha, scale 0 to 100 (0 no effect, 100 complete control)
[20] = Preemergence, 62 g ai/ha, scale 0 to 100, 0 no effect, 100 complete control

COC(=O)Cc1nc(C2CC2)nc(N)c1Br [Compound 13]
Plant response rating, Rice (rice (Oryza sativa)): 0
Plant response rating, Barnyardgrass [1]: 0
Plant response rating, Ducksalad [2]: 0
Plant response rating, Sedge, Umbrella [3]: 0
Oat, Wild plant response rating (wild oat (Avena fatua); 125 g ai/ha): 0
Plant response rating, Oat, Wild (wild oat (Avena fatua)): 0
Blackgrass plant response rating ([4]; 125 g ai/ha): 10
Plant response rating, Blackgrass [4]: 20
Crabgrass plant response rating [5, 15]: 20
Plant response rating, Crabgrass [5, 16]: 30
Plant response rating, Crabgrass [5, 17]: 50
Crabgrass plant response rating [5, 18]: 70
Barnyardgrass plant response rating [6, 15]: 0
Plant response rating, Barnyardgrass [6, 16]: 10
Plant response rating, Barnyardgrass [6, 17]: 40
Barnyardgrass plant response rating [6, 18]: 80
Morningglory plant response rating [7, 15]: 50
Plant response rating, Morningglory [7, 16]: 70
Plant response rating, Morningglory [7, 17]: 90
Morningglory plant response rating [7, 18]: 100
Cocklebur plant response rating [8, 15]: 10
Plant response rating, Cocklebur [8, 16]: 40
Plant response rating, Cocklebur [8, 17]: 90
Cocklebur plant response rating [8, 18]: 100
Foxtail, Giant plant response rating [9, 15]: 10
Plant response rating, Foxtail, Giant [9, 16]: 20
Plant response rating, Foxtail, Giant [9, 17]: 20
Foxtail, Giant plant response rating [9, 18]: 40
Wheat plant response rating [10, 15]: 0
Plant response rating, Wheat [10, 16]: 0
Plant response rating, Wheat [10, 17]: 40
Wheat plant response rating [10, 18]: 60
Velvetleaf plant response rating [11, 15]: 40
Plant response rating, Velvetleaf [11, 16]: 50
Plant response rating, Velvetleaf [11, 17]: 80
Velvetleaf plant response rating [11, 18]: 90
Corn plant response rating (corn (Zea mays); Postemergence, 125 g ai/ha): 0
Plant response rating, Corn (corn (Zea mays); [16]): 0
Corn plant response rating (corn (Zea mays); Preemergence, 500 g ai/ha): 30
Pigweed plant response rating [12, 15]: 50
Plant response rating, Pigweed [12, 16]: 70
Plant response rating, Pigweed [12, 17]: 80
Pigweed plant response rating [12, 18]: 90
Lambsquarters plant response rating [13, 15]: 60
Plant response rating, Lambsquarters [13, 16]: 70
Plant response rating, Lambsquarters [13, 17]: 90
Lambsquarters plant response rating [13, 18]: 100
Surinam Grass plant response rating [14, 15]: 0
Plant response rating, Surinam Grass [14, 16]: 0
Plant response rating, Surinam Grass [14, 17]: 0

CCOC(=O)C(Cl)c1nc(C2CC2)nc(N)c1Br (stereo not drawn) [Compound 31]
Plant response rating, Rice (rice (Oryza sativa)): 20
Plant response rating, Barnyardgrass [1]: 30
Plant response rating, Ducksalad [2]: 60
Plant response rating, Sedge, Umbrella [3]: 0
Oat, Wild plant response rating (wild oat (Avena fatua); 62 g ai/ha): 0
Plant response rating, Oat, Wild (wild oat (Avena fatua)): 0
Blackgrass plant response rating ([4]; 62 g ai/ha): 0
Plant response rating, Blackgrass [4]: 0
Crabgrass plant response rating [5, 19]: 0
Plant response rating, Crabgrass [5, 16]: 30
Plant response rating, Crabgrass [5, 20]: 10
Crabgrass plant response rating [5, 18]: 80
Barnyardgrass plant response rating [6, 19]: 0
Plant response rating, Barnyardgrass [6, 16]: 0
Plant response rating, Barnyardgrass [6, 20]: 20
Barnyardgrass plant response rating [6, 18]: 70
Morningglory plant response rating [7, 19]: 50
Plant response rating, Morningglory [7, 16]: 70
Plant response rating, Morningglory [7, 20]: 90
Morningglory plant response rating [7, 18]: 100
Cocklebur plant response rating [8, 19]: 70
Plant response rating, Cocklebur [8, 16]: 80
Plant response rating, Cocklebur [8, 20]: 90
Cocklebur plant response rating [8, 18]: 100
Foxtail, Giant plant response rating [9, 19]: 0
Plant response rating, Foxtail, Giant [9, 16]: 0
Plant response rating, Foxtail, Giant [9, 20]: 10
Foxtail, Giant plant response rating [9, 18]: 80
Wheat plant response rating [10, 19]: 0
Plant response rating, Wheat [10, 16]: 0
Plant response rating, Wheat [10, 20]: 40
Wheat plant response rating [10, 18]: 70
Velvetleaf plant response rating [11, 19]: 10
Plant response rating, Velvetleaf [11, 16]: 60
Plant response rating, Velvetleaf [11, 20]: 80
Velvetleaf plant response rating [11, 18]: 90
Corn plant response rating (corn (Zea mays); Postemergence, 62 g ai/ha): 0
Plant response rating, Corn (corn (Zea mays); [16]): 0
Plant response rating, Corn (corn (Zea mays); [20]): 0
Corn plant response rating (corn (Zea mays); Preemergence, 500 g ai/ha): 40
Pigweed plant response rating [12, 19]: 20
Plant response rating, Pigweed [12, 16]: 50
Plant response rating, Pigweed [12, 20]: 90
Pigweed plant response rating [12, 18]: 100
Lambsquarters plant response rating [13, 19]: 40
Plant response rating, Lambsquarters [13, 16]: 70
Plant response rating, Lambsquarters [13, 20]: 90
Lambsquarters plant response rating [13, 18]: 100
Surinam Grass plant response rating [14, 19]: 0
Plant response rating, Surinam Grass [14, 16]: 0
Plant response rating, Surinam Grass [14, 20]: 20
Surinam Grass plant response rating [14, 18]: 60
